One data set addresses T1, OR8K3 (Homo sapiens, UniProt Q8NH51, D295E/L122R/Y298D).
T1 construct: Improved functional expression of modified OR-genes containing the truncated, optimized C-terminus; expressed in transfected cells; host or cells: HEK293T stably expressing human RTP1S(V227I) and RTP2(L220R)
T1 sequence (Q8NH51 with tags, fused parts or gaps L122R/D295E/Y298D): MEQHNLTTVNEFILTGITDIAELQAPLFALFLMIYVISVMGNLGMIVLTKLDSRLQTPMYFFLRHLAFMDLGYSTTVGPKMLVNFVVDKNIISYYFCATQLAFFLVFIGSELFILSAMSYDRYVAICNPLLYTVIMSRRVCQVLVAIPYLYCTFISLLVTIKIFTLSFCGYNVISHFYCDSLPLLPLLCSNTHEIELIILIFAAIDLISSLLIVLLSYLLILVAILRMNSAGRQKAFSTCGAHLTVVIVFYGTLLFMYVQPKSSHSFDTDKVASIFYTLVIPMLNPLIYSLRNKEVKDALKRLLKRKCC
Nature of the data set: cell-based. It is filed as cell-based.

The target in a further data set is T2, OR10A3 (Homo sapiens, UniProt P58181).
T2 construct: Class II OR library members with modified C-terminal domains; expressed in transfected cells
T2 sequence (P58181 with tags, fused parts or gaps): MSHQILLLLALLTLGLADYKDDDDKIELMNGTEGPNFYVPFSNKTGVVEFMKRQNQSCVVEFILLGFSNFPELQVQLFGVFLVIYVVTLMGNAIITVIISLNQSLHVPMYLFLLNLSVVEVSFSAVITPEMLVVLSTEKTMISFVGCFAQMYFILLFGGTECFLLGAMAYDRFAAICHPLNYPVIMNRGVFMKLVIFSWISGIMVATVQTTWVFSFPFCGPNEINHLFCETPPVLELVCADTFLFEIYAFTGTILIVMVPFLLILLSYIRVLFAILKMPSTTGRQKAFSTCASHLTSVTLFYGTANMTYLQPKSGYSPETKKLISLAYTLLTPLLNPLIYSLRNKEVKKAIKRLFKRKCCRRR
The experiment in a line: Dose-response test of single lactones on OR10A3 (luciferase). It is filed as cell-based. The protocol:
(§1) In a subsequent de-convultion experiment, the single ingredients were tested in a dose-response test on all the identified OR. […] Thus, OR2AP1 and OR2J2 are particularly strongly activated by the long-chain dodecalactone gamma, while OR10A3 is very sensitive to several longer chain lactones. […] Among the five OR, OR10A3 is the most sensitive.

The target of a further data set is T3, OR2J2 (Homo sapiens, UniProt O76002, A146V/A218T/A302I/G300K/H297E/H74Y).
T3 construct: expressed in transfected cells; transient transfection of pcDNA3.1(+) OR plasmid
T3 sequence (O76002 with tags, fused parts or gaps H74Y/A146V/A218T/H297E/G300K/A302I limits assumed): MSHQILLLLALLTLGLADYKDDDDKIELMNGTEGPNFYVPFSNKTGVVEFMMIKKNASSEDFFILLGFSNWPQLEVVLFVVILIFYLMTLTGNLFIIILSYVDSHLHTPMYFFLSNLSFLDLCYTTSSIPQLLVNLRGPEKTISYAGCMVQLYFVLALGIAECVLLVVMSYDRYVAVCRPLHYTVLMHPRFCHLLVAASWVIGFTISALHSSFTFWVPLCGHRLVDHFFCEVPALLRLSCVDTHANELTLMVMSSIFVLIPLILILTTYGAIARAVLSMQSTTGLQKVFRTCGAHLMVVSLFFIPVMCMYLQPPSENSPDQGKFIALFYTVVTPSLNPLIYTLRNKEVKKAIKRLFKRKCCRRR
The experiment in a line: Dose-response test of single lactones on OR2J2. It is filed as cell-based. The protocol:
as §1

A further data set addresses T4, OR10J1(M51I, I92M) (Homo sapiens, UniProt P30954, I103M/M62I).
T4 construct: expressed in transfected cells; transient transfection of pcDNA3.1(+) OR plasmid
T4 sequence (P30954 with tags, fused parts or gaps M62I/I103M): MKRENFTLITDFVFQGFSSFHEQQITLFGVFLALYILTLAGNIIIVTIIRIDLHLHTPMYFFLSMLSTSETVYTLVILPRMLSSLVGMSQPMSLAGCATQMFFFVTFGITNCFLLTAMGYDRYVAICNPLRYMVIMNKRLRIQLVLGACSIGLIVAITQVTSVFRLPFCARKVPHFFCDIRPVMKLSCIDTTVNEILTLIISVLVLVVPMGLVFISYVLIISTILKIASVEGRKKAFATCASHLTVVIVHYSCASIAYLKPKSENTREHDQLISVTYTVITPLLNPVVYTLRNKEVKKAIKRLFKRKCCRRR
The experiment in a line: Dose-response test of single lactones on OR10J1(M51I, I92M). It is filed as cell-based. As to the method:
as §1

In a further data set the target is T5, OR5A1 (Homo sapiens, UniProt Q8NGJ0, I300V).
T5 construct: Improved functional expression of modified OR-genes containing the truncated, optimized C-terminus; expressed in transfected cells; host or cells: HEK293T stably expressing human RTP1S(V227I) and RTP2(L220R)
T5 sequence (Q8NGJ0 with tags, fused parts or gaps I300V): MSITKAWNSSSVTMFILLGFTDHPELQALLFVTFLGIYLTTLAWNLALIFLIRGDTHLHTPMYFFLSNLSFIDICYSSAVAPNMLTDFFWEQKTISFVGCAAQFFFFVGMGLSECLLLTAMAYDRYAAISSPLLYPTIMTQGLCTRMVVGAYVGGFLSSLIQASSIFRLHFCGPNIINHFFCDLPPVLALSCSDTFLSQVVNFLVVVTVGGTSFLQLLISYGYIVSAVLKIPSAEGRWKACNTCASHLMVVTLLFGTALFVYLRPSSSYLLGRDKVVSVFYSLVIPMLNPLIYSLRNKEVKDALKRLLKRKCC
The experiment in a line: CRE-luciferase assay, HEK293T cells expressing OR5A1 (wild-type / modified C-terminus). It is filed as cell-based.

Another data set concerns the target T6, OR2T4 (Homo sapiens, UniProt Q8NH00, D328E/G331D/M330K).
T6 sequence (Q8NH00 with tags, fused parts or gaps D328E/M330K/G331D): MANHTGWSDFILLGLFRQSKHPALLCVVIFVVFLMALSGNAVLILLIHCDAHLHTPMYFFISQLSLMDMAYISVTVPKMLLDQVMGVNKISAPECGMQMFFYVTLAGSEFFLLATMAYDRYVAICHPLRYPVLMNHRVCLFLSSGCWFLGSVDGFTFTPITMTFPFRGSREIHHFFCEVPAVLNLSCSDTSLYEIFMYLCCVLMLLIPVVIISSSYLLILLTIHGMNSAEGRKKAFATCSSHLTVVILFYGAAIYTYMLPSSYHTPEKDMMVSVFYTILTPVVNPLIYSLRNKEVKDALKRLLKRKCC
To be noted: OR2T4 with optimized C-terminus SEQ ID NO: 86.

The next data set deals with T7, OR2T11 (Homo sapiens, UniProt Q8NH01, C119R).
T7 construct: Improved functional expression of modified OR-genes containing the truncated, optimized C-terminus; expressed in transfected cells; host or cells: HEK293T stably expressing human RTP1S(V227I) and RTP2(L220R)
T7 sequence (Q8NH01 with tags, fused parts or gaps C119R): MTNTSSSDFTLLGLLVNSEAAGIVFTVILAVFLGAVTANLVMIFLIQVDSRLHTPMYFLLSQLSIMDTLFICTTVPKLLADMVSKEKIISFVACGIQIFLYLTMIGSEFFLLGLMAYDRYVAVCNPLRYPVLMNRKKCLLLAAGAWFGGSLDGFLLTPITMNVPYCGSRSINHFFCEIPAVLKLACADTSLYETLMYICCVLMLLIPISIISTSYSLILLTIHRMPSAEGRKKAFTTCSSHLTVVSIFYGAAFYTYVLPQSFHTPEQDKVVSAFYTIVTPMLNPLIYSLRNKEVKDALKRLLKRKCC
Nature of the data set: CRE-luciferase assay, HEK293T cells expressing OR2T11 (wild-type / modified C-terminus). It is filed as cell-based.

In data set [1] the target is T8, OR10A6(A117V, V140G, L287P) (Homo sapiens, UniProt Q8NH74, A117V/L287P/V140G).
T8 construct: expressed in transfected cells; transient transfection of pcDNA3.1(+) OR plasmid
T8 sequence (Q8NH74 with tags, fused parts or gaps A117V/V140G/L287P limits assumed): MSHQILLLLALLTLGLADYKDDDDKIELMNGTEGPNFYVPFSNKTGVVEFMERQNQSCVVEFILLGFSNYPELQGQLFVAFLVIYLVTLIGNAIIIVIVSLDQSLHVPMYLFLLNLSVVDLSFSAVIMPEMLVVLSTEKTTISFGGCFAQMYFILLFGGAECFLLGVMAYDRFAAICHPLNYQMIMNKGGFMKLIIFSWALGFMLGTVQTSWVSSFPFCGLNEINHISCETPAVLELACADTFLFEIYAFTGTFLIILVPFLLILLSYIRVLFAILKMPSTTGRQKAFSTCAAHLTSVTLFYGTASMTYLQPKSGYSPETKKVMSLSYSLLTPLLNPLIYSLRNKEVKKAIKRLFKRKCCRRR
The experiment in a line: Dose-response test of single lactones on OR10A6(A117V, V140G, L287P). It is filed as cell-based. The protocol: as §1

Regarding `CC1CCC(C(C)C)C(O)C1` (stereo not drawn) [Menthol], the Comments on efficacy at OR8K3 is reported as 3-fold lower. Further, the “functional response of chimeric OR8K3” value on OR8K3 (C-terminal sequence of OR1N2 or OR5AN1) is given as “did not show any functional response”. Moreover, at OR8K3 (changed C-term. SEQ ID NO: 86), the half-maximal effective concentration (EC50) (as a rule, the concentration that produces a half-maximal response) was found to be 115 µM. Further, on OR8K3 (changed C-term. vs wild-type), the Fold-improvement potency amounted to 2 and the Fold-improvement threshold is listed as 14.4. At OR8K3 (wild-type), this molecule yielded a half-maximal effective concentration (EC50) of 236 µM.
On to `CCCCC1CCC(=O)O1` (stereo not drawn) [Octalactone gamma], for which the “EC10, concentration for 10-fold OR activation” value at OR10A3 turned out to be 26.93 μM. The “EC2 (concentration for 2-fold luciferase induction)” value on OR2J2 was determined as 65.20 µM; at OR10J1(M51I, I92M) it was 101.73 µM.
Turning to `CC(=O)/C=C/C1=C(C)CCCC1(C)C` [Beta-ionone], on OR5A1, the Comments on efficacy is reported as 4-fold lower. At OR5A1 (changed C-term. SEQ ID NO: 86), the “Detection threshold; concentration for 2-fold induction” value worked out at 3.2 µM. On OR5A1 (changed C-term. vs wild-type), this molecule registered a Fold-improvement potency of 1.8 and a Fold-improvement threshold of 5.9. Also, on OR5A1 (wild-type), the “Detection threshold; concentration for 2-fold induction” value is 19.1 µM and the EC50 was determined as 5.5 µM.
On to `C=CCSSCC=C` [Diallyl disulfide], for which the “ligand identification in sulfur odorant screen” value on OR2T4 is given as “good ligands”. Besides, the Comments on efficacy entry at OR2T11 is given as “No induction”. Also, on OR2T11 (changed C-term. SEQ ID NO: 86), the “Detection threshold; concentration for 2-fold induction” value came to 2.03 µM and the EC50 was found to be 6.51 µM. Also, at OR2T11 (changed C-term. vs wild-type), the Fold-improvement potency is reported as >>40 and the Fold-improvement threshold is recorded as >100. For the same molecule, on OR2T11 (wild-type), the “Detection threshold; concentration for 2-fold induction” value is >200 µM and the EC50 is > 200 µM.
In the case of `CCCCCC1CCCC(=O)O1` (stereo not drawn) [Decalactone delta], the “EC10, concentration for 10-fold OR activation” value on OR10A3 came out at 2.10 μM. The “EC2 (concentration for 2-fold luciferase induction)” value is 5.31 µM in data set [1]; 98.89 µM at OR2J2; 31.73 µM on OR10J1(M51I, I92M).

The values are drawn from patent publication US20260210939A1, “MODIFIED OLFACTORY RECEPTORS” (GIVAUDAN SA, priority 2022, published 2026).
